Measurements reported in patent US11117900B2 (Vertex Pharmaceuticals Incorporated, priority 2012, dated 2021).

Tested on: HCT116 colorectal cancer cells
Test: Cisplatin sensitization assay (96 h MTS cell viability);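 further: compound concentration needed to lower the IC50 of Cisplatin alone by a set fold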
Format: cell-based
Settings: Cisplatin sensitization value
Procedure: Compounds can be screened for their ability to sensitize HCT116 colorectal cancer cells to Cisplatin using a 96 h cell viability (MTS) assay. […] Compounds and Cisplatin are then both added simultaneously to the cell media in 2-fold serial dilutions from a top final concentration of 10 μM as a full matrix of concentrations in a final cell volume of 200 μl, and the cells are then incubated at 37° C. in 5% CO2. After 96 h, 40 μl of MTS reagent (Promega G358a) is added to each well and the cells are incubated for 1 h at 37° C. in 5% CO2.
Compounds with a Cisplatin sensitization value of <0.02 μM are marked with “+++.” Compounds with a Cisplatin sensitization value >0.02 μM but <0.2 μM are marked with “++.” Compounds with a Cisplatin sensitization value >0.2 μM but <5 μM are marked with “+.”

Row | Structure (SMILES) | Cisplatin Sensitization Assay
1 | N#CCc1cnc2c(C(=O)Nc3cnccc3N3CCOC(CN)C3)c(N)nn2c1 (centres unmarked) [I-N-90, 2-amino-N-(4-(2-(aminomethyl)morpholino)pyridin-3-yl)-6-(cyanomethyl)pyrazolo[1,5-a]pyrimidine-3-carboxamide] | + (Compounds with a Cisplatin sensitization value >0.2 μM but <5 μM are marked with “+.”)
2 | Nc1nn2cc(F)cnc2c1C(=O)Nc1cncc(F)c1N1CCC(S(=O)(=O)N2CCOCC2)CC1 [I-N-155, 2-amino-6-fluoro-N-(5-fluoro-4-(4-(morpholinosulfonyl)piperidin-1-yl)pyridin-3-yl)pyrazolo[1,5-a]pyrimidine-3-carboxamide] | +++ (Compounds with a Cisplatin sensitization value of <0.02 μM are marked with “+++.”)
3 | Nc1nn2cc(F)cnc2c1C(=O)Nc1cnccc1N1CCC(C(=O)N2CCC2)CC1 [I-G-77, 2-amino-N-(4-(4-(azetidine-1-carbonyl)piperidin-1-yl)pyridin-3-yl)-6-fluoropyrazolo[1,5-a]pyrimidine-3-carboxamide] | +++ (Compounds with a Cisplatin sensitization value of <0.02 μM are marked with “+++.”)
4 | COc1ccncc1NC(=O)c1c(N)nn2cc(Cl)cnc12 [I-O-57, 2-amino-6-chloro-N-(4-methoxypyridin-3-yl)pyrazolo[1,5-a]pyrimidine-3-carboxamide] | +++ (Compounds with a Cisplatin sensitization value of <0.02 μM are marked with “+++.”)
5 | Nc1nn2cc(F)cnc2c1C(=O)Nc1cnccc1-c1ccc(C(=O)N2CCN3CCC2CC3)cc1 [I-C-48, N-(4-(4-(1,4-diazabicyclo[3.2.2]nonane-4-carbonyl)phenyl)pyridin-3-yl)-2-amino-6-fluoropyrazolo[1,5-a]pyrimidine-3-carboxamide] | +++ (Compounds with a Cisplatin sensitization value of <0.02 μM are marked with “+++.”)
6 | Cc1ccnnc1-c1ccncc1NC(=O)c1c(N)nn2cc(F)cnc12 [I-C-33, 2-amino-6-fluoro-N-(4-(4-methylpyridazin-3-yl)pyridin-3-yl)pyrazolo[1,5-a]pyrimidine-3-carboxamide] | + (Compounds with a Cisplatin sensitization value >0.2 μM but <5 μM are marked with “+.”)
7 | Cc1cncc(NC(=O)c2c(N)nn3cc(F)cnc23)c1N1CCC(C(=O)N2CCNCC2)CC1 [I-G-56, 2-amino-6-fluoro-N-(5-methyl-4-(4-(piperazine-1-carbonyl)piperidin-1-yl)pyridin-3-yl)pyrazolo[1,5-a]pyrimidine-3-carboxamide] | +++ (Compounds with a Cisplatin sensitization value of <0.02 μM are marked with “+++.”)
8 | Nc1nn2cc(Cl)cnc2c1C(=O)Nc1cnccc1N1CCCC(N)C1 (centres unmarked) [I-N-55, 2-amino-N-(4-(3-aminopiperidin-1-yl)pyridin-3-yl)-6-chloropyrazolo[1,5-a]pyrimidine-3-carboxamide] | ++ (Compounds with a Cisplatin sensitization value >0.02 μM but <0.2 μM are marked with “++.”)
9 | Nc1nn2cc(F)cnc2c1C(=O)Nc1cncc(F)c1N1CCN(C2CCOCC2)CC1 [I-N-121, 2-amino-6-fluoro-N-(5-fluoro-4-(4-(tetrahydro-2H-pyran-4-yl)piperazin-1-yl)pyridin-3-yl)pyrazolo[1,5-a]pyrimidine-3-carboxamide] | +++ (Compounds with a Cisplatin sensitization value of <0.02 μM are marked with “+++.”)
10 | CN1CCN(C(=O)C2CCN(c3c(Cl)cncc3NC(=O)c3c(N)nn4cc(F)cnc34)CC2)CC1 [I-G-3, 2-amino-N-(5-chloro-4-(4-(4-methylpiperazine-1-carbonyl)piperidin-1-yl)pyridin-3-yl)-6-fluoropyrazolo[1,5-a]pyrimidine-3-carboxamide] | +++ (Compounds with a Cisplatin sensitization value of <0.02 μM are marked with “+++.”)
11 | Nc1nn2cc(F)cnc2c1C(=O)Nc1cnccc1N1CCN([C@H]2CCOC2)CC1 [I-N-12, (S)-2-amino-6-fluoro-N-(4-(4-(tetrahydrofuran-3-yl)piperazin-1-yl)pyridin-3-yl)pyrazolo[1,5-a]pyrimidine-3-carboxamide] | +++ (Compounds with a Cisplatin sensitization value of <0.02 μM are marked with “+++.”)
12 | CN1CCCCC1C(=O)N1CCN(c2c(F)cncc2NC(=O)c2c(N)nn3cc(F)cnc23)CC1 (centres unmarked) [I-N-214, 2-amino-6-fluoro-N-(5-fluoro-4-(4-(1-methylpiperidine-2-carbonyl)piperazin-1-yl)pyridin-3-yl)pyrazolo[1,5-a]pyrimidine-3-carboxamide] | ++ (Compounds with a Cisplatin sensitization value >0.02 μM but <0.2 μM are marked with “++.”)
13 | Nc1nn2cc(Cl)cnc2c1C(=O)Nc1cnccc1OCCN1CCOCC1 [I-O-60, 2-amino-6-chloro-N-(4-(2-morpholinoethoxy)pyridin-3-yl)pyrazolo[1,5-a]pyrimidine-3-carboxamide] | ++ (Compounds with a Cisplatin sensitization value >0.02 μM but <0.2 μM are marked with “++.”)
14 | CN(C)C(=O)C1CCN(c2c(F)cncc2NC(=O)c2c(N)nn3cc(F)cnc23)CC1 [I-G-29, 2-amino-N-(4-(4-(dimethylcarbamoyl)piperidin-1-yl)-5-fluoropyridin-3-yl)-6-fluoropyrazolo[1,5-a]pyrimidine-3-carboxamide] | +++ (Compounds with a Cisplatin sensitization value of <0.02 μM are marked with “+++.”)
15 | COc1cc(Cl)ncc1NC(=O)c1c(N)nn2cc(CC#N)cnc12 [I-O-27, 2-amino-N-(6-chloro-4-methoxypyridin-3-yl)-6-(cyanomethyl)pyrazolo[1,5-a]pyrimidine-3-carboxamide] | ++ (Compounds with a Cisplatin sensitization value >0.02 μM but <0.2 μM are marked with “++.”)
16 | Nc1nn2cc(F)cnc2c1C(=O)Nc1cnccc1-c1ccccn1 [I-C-60, N-([2,4′-bipyridin]-3′-yl)-2-amino-6-fluoropyrazolo[1,5-a]pyrimidine-3-carboxamide] | ++ (Compounds with a Cisplatin sensitization value >0.02 μM but <0.2 μM are marked with “++.”)
17 | CN1CCN(c2ccncc2NC(=O)c2c(N)nn3cc(Cl)cnc23)CC1 [I-N-59, 2-amino-6-chloro-N-(4-(4-methylpiperazin-1-yl)pyridin-3-yl)pyrazolo[1,5-a]pyrimidine-3-carboxamide] | ++ (Compounds with a Cisplatin sensitization value >0.02 μM but <0.2 μM are marked with “++.”)
18 | Cc1cnccc1-c1ccncc1NC(=O)c1c(N)nn2cc(F)cnc12 [I-C-29, 2-amino-6-fluoro-N-(3′-methyl-[4,4′-bipyridin]-3-yl)pyrazolo[1,5-a]pyrimidine-3-carboxamide] | +++ (Compounds with a Cisplatin sensitization value of <0.02 μM are marked with “+++.”)
19 | CN(C)CCOCCOc1ccncc1NC(=O)c1c(N)nn2cc(Cl)cnc12 [I-O-47, 2-amino-6-chloro-N-(4-(2-(2-(dimethylamino)ethoxy)ethoxy)pyridin-3-yl)pyrazolo[1,5-a]pyrimidine-3-carboxamide] | + (Compounds with a Cisplatin sensitization value >0.2 μM but <5 μM are marked with “+.”)
20 | Nc1nn2cc(F)cnc2c1C(=O)Nc1cncc(F)c1N1CCC(C(=O)N2CCN3CCC2C3)CC1 (centres unmarked) [I-G-46, N-(4-(4-(1,4-diazabicyclo[3.2.1]octane-4-carbonyl)piperidin-1-yl)-5-fluoropyridin-3-yl)-2-amino-6-fluoropyrazolo[1,5-a]pyrimidine-3-carboxamide] | +++ (Compounds with a Cisplatin sensitization value of <0.02 μM are marked with “+++.”)
21 | Nc1nn2cc(F)cnc2c1C(=O)Nc1cnccc1-c1cccnc1 [I-C-15, N-([3,4′-bipyridin]-3′-yl)-2-amino-6-fluoropyrazolo[1,5-a]pyrimidine-3-carboxamide] | ++ (Compounds with a Cisplatin sensitization value >0.02 μM but <0.2 μM are marked with “++.”)
22 | CN1CCN2CCN(c3c(F)cncc3NC(=O)c3c(N)nn4cc(F)cnc34)CC2C1=O (centres unmarked) [I-N-240, 2-amino-6-fluoro-N-(5-fluoro-4-(8-methyl-9-oxohexahydro-1H-pyrazino[1,2-a]pyrazin-2(6H)-yl)pyridin-3-yl)pyrazolo[1,5-a]pyrimidine-3-carboxamide] | ++ (Compounds with a Cisplatin sensitization value >0.02 μM but <0.2 μM are marked with “++.”)
23 | Cc1nc(N2CCN(C)CC2)ccc1-c1ccncc1NC(=O)c1c(N)nn2cc(F)cnc12 [I-C-40, 2-amino-6-fluoro-N-(2-methyl-6-(4-methylpiperazin-1-yl)-[3,4′-bipyridin]-3′-yl)pyrazolo[1,5-a]pyrimidine-3-carboxamide] | +++ (Compounds with a Cisplatin sensitization value of <0.02 μM are marked with “+++.”)
24 | Nc1nn2cc(F)cnc2c1C(=O)Nc1cncc(Cl)c1N1CCN2CCN(C3COC3)CC2C1 (centres unmarked) [I-N-38, 2-amino-N-(5-chloro-4-(8-(oxetan-3-yl)hexahydro-1H-pyrazino[1,2-a]pyrazin-2(6H)-yl)pyridin-3-yl)-6-fluoropyrazolo[1,5-a]pyrimidine-3-carboxamide] | ++ (Compounds with a Cisplatin sensitization value >0.02 μM but <0.2 μM are marked with “++.”)
25 | CN(C)CCNC(=O)C1CCN(c2c(F)cncc2NC(=O)c2c(N)nn3cc(F)cnc23)CC1 [I-G-30, 2-amino-N-(4-(4-((2-(dimethylamino)ethyl)carbamoyl)piperidin-1-yl)-5-fluoropyridin-3-yl)-6-fluoropyrazolo[1,5-a]pyrimidine-3-carboxamide] | +++ (Compounds with a Cisplatin sensitization value of <0.02 μM are marked with “+++.”)
26 | CN1CCN(C(=O)c2ccc(-c3ccncc3NC(=O)c3c(N)nn4cc(F)cnc34)cc2)CC1 [I-C-25, 2-amino-6-fluoro-N-(4-(4-(4-methylpiperazine-1-carbonyl)phenyl)pyridin-3-yl)pyrazolo[1,5-a]pyrimidine-3-carboxamide] | +++ (Compounds with a Cisplatin sensitization value of <0.02 μM are marked with “+++.”)
